Data published in PubChem BioAssay (NCI).
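Test compounds were applied to cells in 96-well plates for 48 hours at 5 doses. GI50 marks 50% less growth. TGI: concentration producing complete growth inhibition.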

Experiments:
Assay in all cases: inhibition of tumour cell growth, NCI panel, 48 h
UACC-62 melanoma = system: UACC-62 melanoma
786-0 renal = system: 786-0 renal
TK-10 renal = system: TK-10 renal
MDA-MB-435 = system: MDA-MB-435
DU-145 prostate = system: DU-145 prostate
HT29 colon = system: HT29 colon
ACHN renal = system: ACHN renal
OVCAR-8 ovarian = system: OVCAR-8 ovarian
SF-539 CNS = system: SF-539 CNS
COLO 205 colon = system: COLO 205 colon
HCT-15 colon = system: HCT-15 colon
NCI/ADR-RES ovarian = system: NCI/ADR-RES ovarian
UACC-257 melanoma = system: UACC-257 melanoma
SR leukemia = system: SR leukemia
SK-MEL-2 melanoma = system: SK-MEL-2 melanoma
UO-31 renal = system: UO-31 renal
SK-MEL-28 melanoma = system: SK-MEL-28 melanoma
BT-549 breast = system: BT-549 breast
NCI-H226 lung = system: NCI-H226 lung
RXF 393 renal = system: RXF 393 renal
A549 NSCLC = system: A549 NSCLC
SNB-19 CNS = system: SNB-19 CNS
SK-OV-3 ovarian = system: SK-OV-3 ovarian
IGROV1 ovarian = system: IGROV1 ovarian
NCI-H23 lung = system: NCI-H23 lung
EKVX NSCLC = system: EKVX NSCLC
HS 578T breast = system: HS 578T breast
MDA-MB-231 breast = system: MDA-MB-231 breast
SN12C renal = system: SN12C renal
KM12 colon = system: KM12 colon
SF-268 CNS = system: SF-268 CNS
MOLT-4 leukemia = system: MOLT-4 leukemia
OVCAR-5 ovarian = system: OVCAR-5 ovarian
PC-3 prostate = system: PC-3 prostate
A498 renal = system: A498 renal
NCI-H460 lung = system: NCI-H460 lung
MALME-3M melanoma = system: MALME-3M melanoma
SK-MEL-5 melanoma = system: SK-MEL-5 melanoma
HL-60(TB) leukemia = system: HL-60(TB) leukemia
OVCAR-3 ovarian = system: OVCAR-3 ovarian
M14 melanoma = system: M14 melanoma
OVCAR-4 ovarian = system: OVCAR-4 ovarian
T-47D breast = system: T-47D breast
U251 CNS = system: U251 CNS
SF-295 CNS = system: SF-295 CNS
SW-620 colon = system: SW-620 colon
HCT-116 colon = system: HCT-116 colon
SNB-75 CNS = system: SNB-75 CNS
CCRF-CEM leukemia = system: CCRF-CEM leukemia
K-562 leukemia = system: K-562 leukemia
NCI-H522 lung = system: NCI-H522 lung
HOP-62 NSCLC = system: HOP-62 NSCLC
HOP-92 NSCLC = system: HOP-92 NSCLC
HCC-2998 colon = system: HCC-2998 colon
CAKI-1 renal = system: CAKI-1 renal

SMILES: CC(=O)Nc1cccc(Nc2nc(N[C@@H](C)c3ccccc3)c3ccccc3n2)c1
- GI50 (UACC-62 melanoma): 380 nM
- TGI (UACC-62 melanoma): 1930 nM
- GI50 (786-0 renal): 630 nM
- TGI (786-0 renal): 4280 nM
- GI50 (TK-10 renal): 6690 nM
- TGI (TK-10 renal): 21200 nM
- GI50 (MDA-MB-435): 169 nM
- TGI (MDA-MB-435): 419 nM
- GI50 (DU-145 prostate): 651 nM
- TGI (DU-145 prostate): 6400 nM
- GI50 (HT29 colon): 362 nM
- TGI (HT29 colon): 5050 nM
- GI50 (ACHN renal): 672 nM
- TGI (ACHN renal): 6900 nM
- TGI (OVCAR-8 ovarian): 9300 nM
- GI50 (SF-539 CNS): 318 nM
- TGI (SF-539 CNS): 1140 nM
- GI50 (COLO 205 colon): 625 nM
- TGI (COLO 205 colon): 4340 nM
- GI50 (HCT-15 colon): 355 nM
- TGI (HCT-15 colon): 1910 nM
- GI50 (NCI/ADR-RES ovarian): 464 nM
- TGI (NCI/ADR-RES ovarian): 4750 nM
- GI50 (UACC-257 melanoma): 1180 nM
- TGI (UACC-257 melanoma): 3430 nM
- GI50 (SR leukemia): 253 nM
- TGI (SR leukemia): 2580 nM
- GI50 (SK-MEL-2 melanoma): 832 nM
- TGI (SK-MEL-2 melanoma): 6010 nM
- GI50 (UO-31 renal): 697 nM
- TGI (UO-31 renal): 2330 nM
- GI50 (SK-MEL-28 melanoma): 1000 nM
- TGI (SK-MEL-28 melanoma): 2430 nM
- GI50 (BT-549 breast): 3620 nM
- TGI (BT-549 breast): 18700 nM
- GI50 (NCI-H226 lung): 738 nM
- TGI (NCI-H226 lung): 21600 nM
- GI50 (RXF 393 renal): 154 nM
- TGI (RXF 393 renal): 581 nM
- GI50 (A549 NSCLC): 601 nM
- TGI (A549 NSCLC): 5970 nM
- GI50 (SNB-19 CNS): 500 nM
- TGI (SNB-19 CNS): 12600 nM
- GI50 (SK-OV-3 ovarian): 679 nM
- TGI (SK-OV-3 ovarian): 15200 nM
- GI50 (IGROV1 ovarian): 507 nM
- TGI (IGROV1 ovarian): 2950 nM
- GI50 (NCI-H23 lung): 387 nM
- TGI (NCI-H23 lung): 2690 nM
- GI50 (EKVX NSCLC): 656 nM
- TGI (EKVX NSCLC): 16500 nM
- GI50 (HS 578T breast): 361 nM
- TGI (HS 578T breast): 2510 nM
- GI50 (MDA-MB-231 breast): 942 nM
- TGI (MDA-MB-231 breast): 3600 nM
- GI50 (SN12C renal): 608 nM
- TGI (SN12C renal): 2860 nM
- GI50 (KM12 colon): 439 nM
- TGI (KM12 colon): 6450 nM
- GI50 (SF-268 CNS): 571 nM
- TGI (SF-268 CNS): 3280 nM
- GI50 (MOLT-4 leukemia): 491 nM
- TGI (MOLT-4 leukemia): 6820 nM
- GI50 (OVCAR-5 ovarian): 1390 nM
- TGI (OVCAR-5 ovarian): 11600 nM
- GI50 (PC-3 prostate): 408 nM
- TGI (PC-3 prostate): 11400 nM
- GI50 (A498 renal): 278 nM
- TGI (A498 renal): 1500 nM
- GI50 (NCI-H460 lung): 356 nM
- TGI (NCI-H460 lung): 2100 nM
- GI50 (MALME-3M melanoma): 470 nM
- TGI (MALME-3M melanoma): 1900 nM
- GI50 (SK-MEL-5 melanoma): 292 nM
- TGI (SK-MEL-5 melanoma): 1070 nM
- GI50 (HL-60(TB) leukemia): 303 nM
- TGI (HL-60(TB) leukemia): 868 nM
- GI50 (OVCAR-3 ovarian): 359 nM
- TGI (OVCAR-3 ovarian): 1540 nM
- GI50 (M14 melanoma): 401 nM
- TGI (M14 melanoma): 1610 nM
- GI50 (OVCAR-4 ovarian): 784 nM
- TGI (OVCAR-4 ovarian): 11800 nM
- GI50 (T-47D breast): 512 nM
- TGI (T-47D breast): 6470 nM
- GI50 (U251 CNS): 525 nM
- TGI (U251 CNS): 2900 nM
- GI50 (SF-295 CNS): 377 nM
- TGI (SF-295 CNS): 1560 nM
- GI50 (SW-620 colon): 425 nM
- TGI (SW-620 colon): 5280 nM
- GI50 (HCT-116 colon): 459 nM
- TGI (HCT-116 colon): 1940 nM
- GI50 (SNB-75 CNS): 194 nM
- TGI (SNB-75 CNS): 820 nM
- GI50 (CCRF-CEM leukemia): 372 nM
- GI50 (K-562 leukemia): 270 nM
- TGI (K-562 leukemia): > 100000 nM
- GI50 (NCI-H522 lung): 322 nM
- TGI (NCI-H522 lung): 2180 nM
- GI50 (HOP-62 NSCLC): 808 nM
- TGI (HOP-62 NSCLC): 7080 nM
- GI50 (HOP-92 NSCLC): 373 nM
- TGI (HOP-92 NSCLC): 4940 nM
- GI50 (HCC-2998 colon): 982 nM
- TGI (HCC-2998 colon): 2530 nM
- GI50 (CAKI-1 renal): 374 nM
- TGI (CAKI-1 renal): 2770 nM
